One experiment relates to ERK. The experiment is described as follows: ERK activation (phosphorylation) immunoblot in HUVEC. The experiment is classed as cell-based, human. Conditions: Example 8, medium No. 11: 2-Cl—C.OXT-A 100 μmol/l.
For another experiment, the system named is p38. The experiment is described as follows: p38 activation (phosphorylation) immunoblot in HUVEC. The class given is cell-based, human. Conditions: 100 μmol/l; 0 to 60 minutes. The procedure:
First, to a HuMedia-EB2 medium (Kurabo) to which 2 v/v % inactivated fetal bovine serum (FBS) had been added, 2-Cl—C.OXT-A was added so that its concentration became 100 μmol/l. Thus, a medium was prepared. Using the medium, human umbilical vein endothelial cells (HUVEC) were cultured for predetermined periods (0, 10, 20, 30, 45, and 60 minutes).
After the culture, cells were collected. The collected cells were lysed by adding a cell lysis buffer (SDS-lysis buffer) thereto, and heat-denatured at 95° C. for 5 minutes. The solubilized protein in an amount corresponding to 5 v/v % of the heat-denatured cell lysate was subjected to electrophoresis using 10% SDS-polyacrylamide gel, whereby the solubilized protein was transferred onto a nitrocellulose membrane (Amersham Biosciences). […]
The enzymes were visualized with SuperSignal (registered trademark) West Pico Chemiluminescent Substrate (Pierce), and detected by being exposed to RX—U X-ray film (FUJIFILM Corporation). From the detected bands, the respective phosphoenzymes and total enzymes were quantified using an NIH image software. Furthermore, the relative value (−fold) of each phosphoenzyme was calculated by substituting the measured value of the phosphoenzyme into the following equation (III).

Turning to `Nc1nc(Cl)nc2c1ncn2C1CC(CO)C1CO` (stereo not drawn) [2-Cl—C.OXT-A, 6-amino-2-chloro-9-[trans-trans-2,3-bis(hydroxymethyl)cyclobutyl]purine], in the experiment on ERK, the pERK entry is listed as “increased”. Moreover, in the experiment on p38, the “amount of pp 38” value was “not changed”.

The record behind these values is US20110230659A1, “CYCLOBUTYL PURINE DERIVATIVE, ANGIOGENESIS PROMOTING AGENT, LUMEN FORMATION PROMOTING AGENT, NEUROCYTE GROWTH PROMOTING AGENT, AND DRUG” (NATIONAL UNIVERSITY CORPORATION KAGAWA UNIVERSITY, priority 2008, published 2011).
